The target in experiment [1] is T1, Muscarinic acetylcholine receptor M2 (Homo sapiens, UniProt P08172).
T1 sequence (P08172 whole entry): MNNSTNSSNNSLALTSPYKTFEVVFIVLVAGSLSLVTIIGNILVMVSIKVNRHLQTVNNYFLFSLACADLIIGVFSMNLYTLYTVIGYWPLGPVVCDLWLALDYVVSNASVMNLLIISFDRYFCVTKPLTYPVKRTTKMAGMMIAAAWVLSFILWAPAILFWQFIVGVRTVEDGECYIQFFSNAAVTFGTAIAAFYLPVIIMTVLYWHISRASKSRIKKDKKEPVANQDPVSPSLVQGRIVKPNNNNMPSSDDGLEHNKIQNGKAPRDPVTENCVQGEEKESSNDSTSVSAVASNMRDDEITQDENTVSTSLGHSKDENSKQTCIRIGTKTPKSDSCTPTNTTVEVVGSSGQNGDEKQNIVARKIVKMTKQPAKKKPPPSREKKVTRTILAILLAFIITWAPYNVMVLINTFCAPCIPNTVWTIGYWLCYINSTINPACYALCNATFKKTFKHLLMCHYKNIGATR
In kind it is functional, cell-based.

Experiment [2] has as its target T2, 5-hydroxytryptamine receptor 2C (Homo sapiens, UniProt P28335).
T2 sequence (P28335 whole entry): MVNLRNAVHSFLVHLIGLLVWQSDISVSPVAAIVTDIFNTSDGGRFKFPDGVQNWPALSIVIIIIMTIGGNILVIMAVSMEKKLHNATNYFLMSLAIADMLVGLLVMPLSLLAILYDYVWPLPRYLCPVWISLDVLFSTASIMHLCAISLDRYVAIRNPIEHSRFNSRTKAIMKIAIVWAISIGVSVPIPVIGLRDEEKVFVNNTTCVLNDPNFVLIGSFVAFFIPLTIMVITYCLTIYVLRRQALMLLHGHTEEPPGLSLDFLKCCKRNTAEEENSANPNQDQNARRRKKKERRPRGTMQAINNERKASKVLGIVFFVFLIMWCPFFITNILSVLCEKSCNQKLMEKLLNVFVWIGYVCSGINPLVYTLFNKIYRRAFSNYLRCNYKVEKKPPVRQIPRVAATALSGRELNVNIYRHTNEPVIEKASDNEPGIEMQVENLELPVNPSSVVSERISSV

The target of experiment [3] is T3, Amine oxidase [flavin-containing] A (Homo sapiens, UniProt P21397).
T3 sequence (P21397 whole entry): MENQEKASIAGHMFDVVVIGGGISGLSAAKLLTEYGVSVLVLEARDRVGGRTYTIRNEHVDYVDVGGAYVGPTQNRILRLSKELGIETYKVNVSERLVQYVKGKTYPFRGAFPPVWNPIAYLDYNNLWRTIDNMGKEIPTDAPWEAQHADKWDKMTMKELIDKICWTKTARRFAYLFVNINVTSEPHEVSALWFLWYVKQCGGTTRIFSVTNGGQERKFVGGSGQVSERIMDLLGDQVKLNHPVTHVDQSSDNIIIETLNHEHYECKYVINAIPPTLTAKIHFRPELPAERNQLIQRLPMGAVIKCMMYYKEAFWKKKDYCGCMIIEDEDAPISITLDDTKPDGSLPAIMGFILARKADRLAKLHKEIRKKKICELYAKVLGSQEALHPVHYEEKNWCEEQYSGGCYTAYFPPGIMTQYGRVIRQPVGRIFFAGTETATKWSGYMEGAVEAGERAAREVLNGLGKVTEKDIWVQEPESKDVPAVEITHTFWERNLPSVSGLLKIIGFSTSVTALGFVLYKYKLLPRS
In kind it is functional.

A further experiment concerns the target T4, B2 bradykinin receptor (Homo sapiens, UniProt P30411).
T4 sequence (P30411 whole entry): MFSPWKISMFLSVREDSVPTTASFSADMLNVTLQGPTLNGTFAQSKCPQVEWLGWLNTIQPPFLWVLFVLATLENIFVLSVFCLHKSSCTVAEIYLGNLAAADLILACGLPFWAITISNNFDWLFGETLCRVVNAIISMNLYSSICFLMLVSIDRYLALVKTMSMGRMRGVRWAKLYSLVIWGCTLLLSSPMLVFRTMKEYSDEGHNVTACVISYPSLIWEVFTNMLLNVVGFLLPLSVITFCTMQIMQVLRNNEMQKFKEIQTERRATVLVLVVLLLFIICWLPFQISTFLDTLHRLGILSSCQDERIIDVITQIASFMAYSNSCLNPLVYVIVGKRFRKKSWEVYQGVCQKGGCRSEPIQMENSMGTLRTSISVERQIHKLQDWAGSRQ

Experiment [4] has as its target T5, Neuropeptide Y receptor type 1 (Homo sapiens, UniProt P25929).
T5 sequence (P25929 whole entry): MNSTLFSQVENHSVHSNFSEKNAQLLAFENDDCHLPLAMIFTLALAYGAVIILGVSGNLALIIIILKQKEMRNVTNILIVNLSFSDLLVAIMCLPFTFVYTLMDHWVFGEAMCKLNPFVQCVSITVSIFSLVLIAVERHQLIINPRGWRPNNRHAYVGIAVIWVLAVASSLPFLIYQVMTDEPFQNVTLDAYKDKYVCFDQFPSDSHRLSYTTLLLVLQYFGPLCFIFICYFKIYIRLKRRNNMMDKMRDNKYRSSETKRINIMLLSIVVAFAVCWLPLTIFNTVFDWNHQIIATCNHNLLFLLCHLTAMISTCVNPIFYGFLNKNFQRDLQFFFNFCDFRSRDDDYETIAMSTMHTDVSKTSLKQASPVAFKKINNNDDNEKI
The settings on record: read-out: AC50.

Another experiment deals with Histamine H2 receptor (Homo sapiens, UniProt P25021). In kind it is functional, cell-based.
For another experiment, the target named is Vasopressin V2 receptor (Homo sapiens, UniProt P30518).
Experiment [5] has as its target Sodium-dependent noradrenaline transporter (Homo sapiens, UniProt P23975).
In experiment [6] the target is T6, 5-hydroxytryptamine receptor 3A (Homo sapiens, UniProt P46098).
T6 sequence (P46098 whole entry): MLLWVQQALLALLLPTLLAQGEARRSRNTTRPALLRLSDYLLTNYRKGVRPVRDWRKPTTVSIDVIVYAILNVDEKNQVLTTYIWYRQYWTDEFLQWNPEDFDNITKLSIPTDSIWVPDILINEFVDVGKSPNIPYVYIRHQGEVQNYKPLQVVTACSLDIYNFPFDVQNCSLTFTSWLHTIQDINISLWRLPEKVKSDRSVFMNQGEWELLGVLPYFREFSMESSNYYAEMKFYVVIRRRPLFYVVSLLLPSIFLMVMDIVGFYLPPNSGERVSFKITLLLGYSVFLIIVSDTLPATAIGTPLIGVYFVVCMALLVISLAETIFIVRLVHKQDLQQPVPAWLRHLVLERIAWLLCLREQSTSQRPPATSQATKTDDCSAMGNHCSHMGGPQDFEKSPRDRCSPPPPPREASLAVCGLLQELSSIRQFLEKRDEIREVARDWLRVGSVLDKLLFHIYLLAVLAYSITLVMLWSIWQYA
In kind it is functional.

As a reminder, the AC50 is the concentration at which the activity in the assay is half-maximal.
Also: assay procedure not described here.

Sequence of Histamine H2 receptor (P25021 whole entry): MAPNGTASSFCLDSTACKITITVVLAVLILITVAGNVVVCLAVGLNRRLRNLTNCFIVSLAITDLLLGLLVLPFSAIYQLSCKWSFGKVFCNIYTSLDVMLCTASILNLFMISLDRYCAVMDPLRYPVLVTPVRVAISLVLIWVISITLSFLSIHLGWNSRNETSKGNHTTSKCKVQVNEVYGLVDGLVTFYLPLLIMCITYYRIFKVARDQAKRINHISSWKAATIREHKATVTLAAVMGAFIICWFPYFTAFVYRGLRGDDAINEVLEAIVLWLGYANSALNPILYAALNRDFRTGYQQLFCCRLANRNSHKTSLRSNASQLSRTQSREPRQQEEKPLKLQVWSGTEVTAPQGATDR
Sequence of Sodium-dependent noradrenaline transporter (P23975 whole entry): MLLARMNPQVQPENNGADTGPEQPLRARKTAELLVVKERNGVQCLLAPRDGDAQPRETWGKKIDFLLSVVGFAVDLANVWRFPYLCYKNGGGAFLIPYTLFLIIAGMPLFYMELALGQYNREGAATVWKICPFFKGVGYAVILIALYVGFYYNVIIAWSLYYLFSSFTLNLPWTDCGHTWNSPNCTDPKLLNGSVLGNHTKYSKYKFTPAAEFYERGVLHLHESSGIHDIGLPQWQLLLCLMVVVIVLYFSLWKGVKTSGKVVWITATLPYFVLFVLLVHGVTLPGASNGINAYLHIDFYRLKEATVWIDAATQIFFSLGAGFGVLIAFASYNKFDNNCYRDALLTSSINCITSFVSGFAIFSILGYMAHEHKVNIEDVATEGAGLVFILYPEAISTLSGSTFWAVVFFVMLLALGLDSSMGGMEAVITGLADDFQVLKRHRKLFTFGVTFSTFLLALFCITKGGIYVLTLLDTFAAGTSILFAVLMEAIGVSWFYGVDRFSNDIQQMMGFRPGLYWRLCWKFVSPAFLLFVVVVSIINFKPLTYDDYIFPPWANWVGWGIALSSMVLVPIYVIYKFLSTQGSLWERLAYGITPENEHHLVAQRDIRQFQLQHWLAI
Sequence of Vasopressin V2 receptor (P30518 whole entry): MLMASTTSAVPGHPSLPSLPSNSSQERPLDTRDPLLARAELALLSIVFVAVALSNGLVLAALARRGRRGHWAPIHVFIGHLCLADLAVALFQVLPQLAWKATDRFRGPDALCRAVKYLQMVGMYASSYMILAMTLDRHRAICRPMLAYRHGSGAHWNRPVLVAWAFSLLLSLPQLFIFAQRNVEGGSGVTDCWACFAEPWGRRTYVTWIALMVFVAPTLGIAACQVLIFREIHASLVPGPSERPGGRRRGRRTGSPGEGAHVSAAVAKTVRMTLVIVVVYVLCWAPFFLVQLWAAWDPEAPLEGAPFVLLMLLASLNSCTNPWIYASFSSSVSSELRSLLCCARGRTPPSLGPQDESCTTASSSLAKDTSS

As to `Clc1ccc2c(N3CCN(CCCN4CCN(c5ccnc6cc(Cl)ccc56)CC4)CC3)ccnc2c1` [PIPERAQUINE], the AC50 (in experiment [1]; in experiment [2]; in experiment [3]; at B2 bradykinin receptor; in [4]; at Histamine H2 receptor) was more than 30 µM throughout. Besides, the AC50 (on Vasopressin V2 receptor; in experiment [5]; in experiment [6]) was more than 30 µM in each case.

In the case of `CCCN[C@H]1CCc2nc(N)sc2C1` [PRAMIPEXOLE], the AC50 is more than 10 µM in experiment [1]; more than 30 µM in experiment [2]; more than 10 µM in experiment [3]; more than 30 µM on B2 bradykinin receptor; more than 30 µM in [4]; 0.73 µM on Histamine H2 receptor. For the same compound, the AC50 (at Vasopressin V2 receptor; in experiment [5]; in experiment [6]) was more than 30 µM throughout.

`Cc1noc(NS(=O)(=O)c2ccc(N)cc2)c1C` [SULFISOXAZOLE]: the AC50 in experiment [1] is more than 10 µM; in experiment [2], more than 30 µM; in experiment [3] it was more than 10 µM; at B2 bradykinin receptor, more than 10 µM; in [4], more than 10 µM; on Histamine H2 receptor it was more than 10 µM. The results for the AC50 (on Vasopressin V2 receptor; in experiment [5]; in [6]) were more than 10 µM, more than 10 µM and more than 30 µM, respectively.

On to `CC1(C)S[C@@H]2[C@H](NC(=O)[C@H](N)c3ccccc3)C(=O)N2[C@H]1C(=O)OCOC(=O)[C@@H]1N2C(=O)C[C@H]2S(=O)(=O)C1(C)C` [SULTAMICILLIN], for which the AC50 (in experiment [1]; in experiment [2]; in experiment [3]; on B2 bradykinin receptor; in experiment [4]; on Histamine H2 receptor) was more than 30 µM each time. Moreover, the AC50 (on Vasopressin V2 receptor; in experiment [5]; in experiment [6]) was more than 30 µM throughout.

On to `CCC(=O)O[C@H]1CC[C@H]2[C@@H]3CCC4=CC(=O)CC[C@]4(C)[C@H]3CC[C@]12C` [TESTOSTERONE PROPIONATE], for which the concentration at half-maximal activity (AC50) in experiment [1] was more than 10 µM; in experiment [2], more than 30 µM; in experiment [3] it was more than 10 µM; on B2 bradykinin receptor, more than 10 µM; in experiment [4], more than 10 µM; at Histamine H2 receptor, more than 10 µM. Moreover, the figures for the AC50 (at Vasopressin V2 receptor; in experiment [5]; in [6]) were more than 10 µM, more than 10 µM and more than 30 µM, respectively.

Regarding `Clc1ccc(C(Cn2ccnc2)OCc2ccsc2Cl)c(Cl)c1` (stereo not drawn) [TIOCONAZOLE], the AC50 in [1] was more than 30 µM; in experiment [2] it was more than 30 µM; in experiment [3], more than 30 µM; on B2 bradykinin receptor, more than 3 µM; in experiment [4] it was more than 30 µM; at Histamine H2 receptor it was more than 30 µM. Besides, the AC50 at Vasopressin V2 receptor is more than 30 µM; in [5], 20.7 µM; in experiment [6], more than 30 µM.

On to `Cc1cc2cc3c(C)cc(=O)oc3c(C)c2o1` [TRIOXSALEN], for which the AC50 in experiment [1] was more than 10 µM; in [2], more than 30 µM; in experiment [3], 0.72 µM; at B2 bradykinin receptor, more than 10 µM; in experiment [4] it was more than 10 µM; at Histamine H2 receptor, more than 10 µM. For the same compound, the AC50 on Vasopressin V2 receptor is more than 10 µM; in experiment [5], more than 10 µM; in experiment [6] it was more than 30 µM.

Turning to `CC(C)[C@H](N)C(=O)OCC(CO)OCn1cnc2c(=O)nc(N)[nH]c21` (stereo partly drawn) [VALGANCICLOVIR], the AC50 (in [1]; in [2]; in experiment [3]; at B2 bradykinin receptor; in experiment [4]; at Histamine H2 receptor) was more than 30 µM in each case. The AC50 (on Vasopressin V2 receptor; in experiment [5]; in [6]) was more than 30 µM in each case.

For the compound `CCC(C)C(CC)C(N)=O` (stereo not drawn) [VALNOCTAMIDE], the AC50 (in experiment [1]; in experiment [2]; in experiment [3]; at B2 bradykinin receptor; in [4]; at Histamine H2 receptor) was more than 30 µM throughout. The half-maximal activity concentration (AC50) (on Vasopressin V2 receptor; in [5]; in [6]) was more than 30 µM each time.

Turning to `CCCC(CCC)C(N)=O` [VALPROMIDE], the AC50 in [1] is more than 10 µM; in experiment [2], more than 30 µM; in experiment [3] it was more than 10 µM; on B2 bradykinin receptor, more than 30 µM; in experiment [4] it was more than 30 µM; at Histamine H2 receptor, more than 10 µM. For the same compound, the AC50 (at Vasopressin V2 receptor; in experiment [5]; in experiment [6]) was more than 30 µM throughout.

With `CCOC(=O)C1=C[C@]2(CC)CCCN3CCc4c(n1c1ccccc41)[C@@H]32` [VINPOCETINE], the AC50 in experiment [1] is 13 µM; in experiment [2], more than 30 µM; in experiment [3], more than 30 µM; at B2 bradykinin receptor it was more than 30 µM; in experiment [4], more than 30 µM; at Histamine H2 receptor, more than 30 µM. Also, the concentration at half-maximal activity (AC50) (at Vasopressin V2 receptor; in [5]; in experiment [6]) was more than 30 µM throughout.

As for `Cc1cc(C(C)(C)C)cc(C)c1CC1=NCCN1` [XYLOMETAZOLINE], the concentration at half-maximal activity (AC50) in [1] is more than 30 µM; in [2], 10 µM; in [3] it was more than 30 µM; on B2 bradykinin receptor, more than 30 µM; in experiment [4], more than 30 µM; at Histamine H2 receptor it was more than 30 µM. Also, the AC50 (on Vasopressin V2 receptor; in [5]; in experiment [6]) was more than 30 µM in each case.

The values above are taken from ChEMBL document CHEMBL5291721, “A preclinical secondary pharmacology resource illuminates target-adverse drug reaction associations of marketed drugs” (Nat Commun, 2023).
